Columns and labels:
[1] = test system: fibronectin; assay: Immunoblotting, fibronectin expression in GL261; type: cell-based, mouse; settings: GL261, 10 µM, 48 h
Method: (§1) GL261 cell was seeded at 2.5 × 10^4 cells per well in 24-well plates with culture medium supplemented with 10% FBS. After 24 h of incubation, the medium was changed to DMEM containing 10% FBS and 0.1%DMSO PBS, 300 μM temozolomide, 10 μM astaxanthin, or 10 μM adonixanthin was added for 6 and 48 h. Cells were lysed in a special buffer (RIPA buffer R0278; Sigma-Aldrich, St. Louis, MO, USA) with a protease inhibitor cocktail (Sigma-Aldrich), phosphatase inhibitor cocktails 2 and 3 (Sigma-Aldrich), and sample buffer (Wako, Osaka, Japan). The protein concentration was determined by comparison with a known concentration of bovine serum albumin using the BCA Protein Assay Kit (Thermo Fisher Scientific). The amount of total protein was 2 μg. […] The band intensity was […] using an Immuno Star LD (Wako). Band intensity was measured using an LAS-4000 UV mini Luminescent Image Analyzer (Fujifilm, Tokyo Japan) and Multi Gauge Version 3.0 (Fujifilm). The phosphorylation of ERK1/2, Akt, and p38 MAPK was measured by normalizing against total ERK1/2, total Akt, and total p38 MAPK. […]

[2] = test system: Bcl-2; assay: Immunoblotting, Bcl-2 expression in GL261; type: cell-based, mouse; settings: GL261, 10 µM, 48 h
Method: as §1, with “μg. Equal amounts of protein in sample buffer containing 10% 2-mercaptoethanol were subjected to sodium dodecyl sulphate polyacrylamide gel electrophoresis (SDS-PAGE) in 5-20% gradient gels (SuperSep Ace; Wako), and the separated proteins were transferred to polyvinylidene difluoride membrane (Immobilon-P; Merck Millipore Corporation, Bedford, MA, USA). After blocking for 30 min with Blocking One-P (Nacalai Tesque), we incubated the membranes with primary antibodies overnight at 4 °C.” for “μg.”

[3] = Body weight of mice during administration; type: in vivo, mouse
Method: In the experiment of the murine orthotopic glioblastoma model, oral administration of each astaxanthin (10 and 30 mg/kg) and adonixanthin (10 and 30 mg/kg) was initiated 3 days after intracranial injection of GL261 cells and was continued for 10 days. In the experiment of the brain tissue absorption with oral astaxanthin or adonixanthin, after one week of adaptation, ICR mice were randomly divided into the following three groups: control group, astaxanthin group (50 mg/kg), and adonixanthin group (50 mg/kg). Mice were orally administered each reagent suspended in olive oil (5 mL/kg) by the daily single dose for 10 days. The control group was treated by olive oil alone (5 mL/kg).

[4] = test system: hippocampal inflammation; parameters: method as in PMID 28017669; settings: diabetic mice, oral 25 mg/kg ref 45; cited from earlier work
[5] = known; no reference given; cited from earlier work

Row | Compound | expression of fibronectin [1] | expression of Bcl-2 vs. control [2] | changes in body weight ([3]; 10 days of administration) | body weight of treated mice ([3]; after 10 days of administration, vehicle 34.72 ± 2.05 g) [g] | hippocampal inflammation [4] | dose that does not show adverse effects even with long-term administration [5] [mg/kg]
1 | CC1=C(/C=C/C(C)=C/C=C/C(C)=C/C=C/C=C(C)/C=C/C=C(C)/C=C/C2=C(C)C(=O)[C@@H](O)CC2(C)C)C(C)(C)C[C@H](O)C1 [Adonixanthin, adonixanthin] | decreased | N.S. | – | – | – | –
2 | CC1=C(/C=C/C(C)=C/C=C/C(C)=C/C=C/C=C(C)/C=C/C=C(C)/C=C/C2=C(C)C(=O)[C@@H](O)CC2(C)C)C(C)(C)C[C@H](O)C1=O [Astaxanthin, astaxanthin] | – | N.S. | No significant changes | 35.50 ± 1.95 | inhibited hippocampal inflammation | 50

— article PMC7551886, “Antitumour Effects of Astaxanthin and Adonixanthin on Glioblastoma” (Marine Drugs, 2020)
